US20190351003A1, “METHODS FOR INHIBITING NONALCOHOLIC STEATOHEPATITIS, NONALCOHOLIC FATTY LIVER DISEASE, AND/OR DE NOVO LIPOGENESIS” (The Regents of the University of California, priority 2017, published 2019)

Assays:
[1] = tested on: MUP-uPA mice; conditions: HFD-fed MUP-uPA mice; cited from earlier work
[2] = tested on: HFD-fed MUP-uPA mice; assay: Casp2 inhibitor treatment of HFD-fed MUP-uPA mice (NASH model); type: in vivo, mouse; conditions: for circulating TG / circulating cholesterol: serum
Procedure: FIGS. 6A-6G are pictorial and graphical diagrams showing that Casp2 inhibition ameliorates NASH. […] After 6 weeks of HFD feeding, MUP-uPA mice were treated with Ac-VDVAD (10 μg/g) for 6 weeks while kept on HFD. […] FFPE sections from livers of inhibitor or vehicle treated mice were evaluated for macrovesicular fat, ballooning hepatocytes, MDB and p62 aggregates, macrophages, collagen fibers and lipid droplets. Magnification bars: 100 μm. Images were quantitated as above and results are shown on the right as averages±SEM (Vehicle: n=6; Ac-VDVAD: n=5). […] Mean±SEM. […] Adipocyte size and density were determined as above. ATM (adipose tissue macrophages) were visualized by F4/80 staining and quantified as above.
Casp2^−/− mice were purchased from The Jackson Laboratories and crossed with either C57BL/6 or MUP-uPA mice (Sandgren et al., 1991; Weglarz et al., 2000) to generate Casp2^−/−/WT or Casp2^−/−/MUP-uPA mice, respectively. All mouse lines were either on a pure C57BL/6 genetic background or crossed into it for at least nine generations. Mice were fed with HFD (#S3282, Bio-serv) for a total of 12 weeks, starting at 8 weeks of age. Body weight increase and food consumption were monitored bi-weekly throughout the entire feeding period. Mice were starved for 3 hr before sacrifice and liver and adipose tissue were excised and weighed.
(§1) RNAs were extracted from liver or fat tissue of indicated mice or human biopsies using TRIZOL reagent according to manufacturer's instruction. cDNAs were synthesized from total RNAs using Super Script VILO cDNA Synthesis Kit (Thermo Fisher Scientific, MA) according to the supplier's instructions. The cDNAs were quantified by real-time PCR analysis using SYBR Green Master Mix (Bio-Rad, CA). Primer sequences that were used for human biopsies are as follows:
Liver and epidydimal fat were fixed in 4% paraformaldehyde for 48 hr and embedded in paraffin, sectioned, stained with hematoxylin and eosin (H&E) to evaluate gross morphology and ballooning degeneration and with Sirius Red to determine fibrosis. Prepared FFPE sections were subjected to incubation with antibodies specific to p62 and F4/80 to visualize formation of Mallory-Denk Bodies (MDB) and macrophage infiltration, respectively. For frozen-block preparation, liver tissue was embedded in Tissue-Tek OCT compound (Sakura Finetek), sectioned, and stained with Oil Red O to visualize TG accumulation. Stained areas were quantified using ImageJ software.
Liver lipids were extracted using chloroform/methanol (2:1 v/v) and plasma and liver TG and cholesterol were determined using Triglyceride Colorimetric Assay Kit (Cayman Chemical Company, MI) and Cholesterol Quantification Kit (Sigma-Aldrich, MO) according to manufacturer's instructions.
Morphological analysis of adipocytes was performed by using MRI adipocyte tools (Osman et al., 2013). Images were taken from FFPE epidydimal fat section by AXIO Imager A2 (Carl Zeiss, Germany) and subjected to MRI adipocyte software to obtain area of individual fat cell and number of adipocytes per HMF. Quantification and statistical significance were analyzed by Prism 7 software (GraphPad Prism, CA).
To examine whether Casp2 inhibition is of therapeutic value, Ac-VDVAD-CHO (C23H37N5O10), a cell permeable, Casp2 inhibitor (Talanian et al., 1997) was administrated to HFD-fed MUP-uPA mice. HFD feeding was initiated at eight weeks of age, and six weeks later the mice were given the Casp2 inhibitor on alternate days by intraperitoneal (i.p.) injection (FIG. 6A). After a 6-week treatment regimen, the mice were sacrificed and their liver and adipose tissue were examined. […] Fibrosis was also attenuated. qRT-PCR analysis confirmed that expression of inflammatory cytokines and markers as well as fibrosis-related genes was reduced in response to Casp2 inhibition (FIG. 6C). […]

[3] = tested on: human caspases (including caspase-2); conditions: cited from earlier work
[4] = tested on: Casp2; assay: Tunicamycin (ER stress inducer) administration to NC-fed BL6 mice, liver Casp2 expression; type: in vivo, mouse; conditions: non-transgenic 3-month-old NC-fed BL6 mice; tunicamycin 1.25 mg/kg i.p.
Procedure: FIGS. 12A-12I are pictorial and graphical diagrams showing elevated Casp2 expression in ER-stressed mice and human NASH. FIG. 12A the results from immunoblot (IB) analysis of whole cell lysates (WCL) from 5-week-old WT and MUP-uPA livers (left) and WCL of livers from 3-month-old WT mice that were i.p. injected with dextrose or tunicamycin (1.25 mg/kg). Results are mean±SEM (dextrose: n=4; tunicamycin: n=5). P: precursor, C: cleaved. […] Results are mean±SEM (WT: n=5; MUP: n=9). […] Casp4 and Casp12 were examined in liver lysates of 5-week-old mice. […] Staining intensity was quantitated using ImageJ as described in FIG. 1.
as §1
ER stress in MUP-uPA liver peaks in 5- to 6-week-old mice and then declines due to reduced uPA expression in newly regenerated hepatocytes (Nakagawa et al., 2014; Sandgren et al., 1991). […]

[5] = target: T1, Flag-tagged SREBP2, Q12772
T1 chain: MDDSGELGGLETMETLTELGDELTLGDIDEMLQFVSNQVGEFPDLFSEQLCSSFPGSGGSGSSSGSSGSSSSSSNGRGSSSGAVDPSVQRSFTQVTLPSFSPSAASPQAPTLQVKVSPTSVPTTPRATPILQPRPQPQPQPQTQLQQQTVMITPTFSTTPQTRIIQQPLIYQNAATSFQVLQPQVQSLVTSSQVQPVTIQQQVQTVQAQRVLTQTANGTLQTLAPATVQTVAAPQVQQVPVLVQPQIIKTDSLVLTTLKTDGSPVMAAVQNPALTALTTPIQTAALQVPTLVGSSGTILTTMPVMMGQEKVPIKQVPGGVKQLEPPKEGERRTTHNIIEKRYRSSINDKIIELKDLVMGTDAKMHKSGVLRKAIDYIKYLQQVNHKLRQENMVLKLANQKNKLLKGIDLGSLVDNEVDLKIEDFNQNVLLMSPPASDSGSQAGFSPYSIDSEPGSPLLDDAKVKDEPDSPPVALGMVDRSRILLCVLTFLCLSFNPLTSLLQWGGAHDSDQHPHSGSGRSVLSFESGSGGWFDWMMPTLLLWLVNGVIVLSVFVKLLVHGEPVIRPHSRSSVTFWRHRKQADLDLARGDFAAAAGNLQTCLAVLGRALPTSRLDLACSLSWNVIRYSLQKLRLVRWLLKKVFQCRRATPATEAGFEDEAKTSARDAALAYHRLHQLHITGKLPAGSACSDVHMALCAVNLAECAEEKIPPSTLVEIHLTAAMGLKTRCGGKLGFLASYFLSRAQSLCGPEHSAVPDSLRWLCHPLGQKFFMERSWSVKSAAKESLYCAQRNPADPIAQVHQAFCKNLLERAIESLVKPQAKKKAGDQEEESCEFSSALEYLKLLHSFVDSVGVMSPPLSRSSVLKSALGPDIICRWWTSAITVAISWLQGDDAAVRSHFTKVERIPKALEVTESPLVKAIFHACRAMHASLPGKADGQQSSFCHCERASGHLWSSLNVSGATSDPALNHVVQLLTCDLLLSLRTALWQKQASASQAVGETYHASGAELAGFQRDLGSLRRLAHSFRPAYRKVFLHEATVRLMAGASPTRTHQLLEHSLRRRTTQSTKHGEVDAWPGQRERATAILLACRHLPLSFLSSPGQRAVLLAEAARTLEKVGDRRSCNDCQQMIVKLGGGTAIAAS

[6] = HFD-fed MUP-uPA mice, 10 μg/g i.p. every other day for 6 weeks
[7] = HFD-fed MUP-uPA mice, 10 μg/g i.p. every other day for 6 weeks, liver
[8] = HFD-fed MUP-uPA mice, 10 μg/g i.p. on alternate days for 6 weeks
[9] = HFD-fed MUP-uPA mice, 10 μg/g i.p. on alternate days for 6 weeks, liver sections
[10] = liver WCL, IB, HFD-fed MUP-uPA mice, 10 μg/g i.p. on alternate days for 6 weeks

## O=C(O)CCCc1ccccc1 [PBA, phenyl butyric acid]
[1]
  NASH development: effectively inhibited
  activation of sterol response element binding proteins (SREBP): attenuate
  lipid accumulation: inhibit

## C[C@H](CCC(=O)NCCS(=O)(=O)O)[C@H]1CC[C@H]2[C@@H]3[C@@H](O)C[C@@H]4C[C@H](O)CC[C@]4(C)[C@H]3CC[C@]12C [TUDCA, tauroursodeoxycholic acid]
[1]
  NASH development: effectively inhibited
  activation of sterol response element binding proteins (SREBP): attenuate
  lipid accumulation: inhibit

## z-VDVAD-fmk
[2]; [6]
  ATM (adipose tissue macrophage) accumulation / infiltration into epidydimal fat: reduced
  UCP1 expression in BAT: elevating
  inflammatory infiltration in livers: decreased
  liver TG: significantly prevented
  liver fibrosis: dramatically reduced
  circulating TG: decreased
  circulating cholesterol: decreased
[2]; [7]
  MDB (Mallory-Denk body) formation: decreased

## C[C@H](NC(=O)C(=O)Nc1ccccc1C(C)(C)C)C(=O)N[C@@H](CC(=O)O)C(=O)COc1c(F)c(F)cc(F)c1F [IDN-6556]
[3]; broad-spectrum (pan-caspase) inhibitor
  activity against human caspases: activity against all tested human caspases
[3]; selectivity
  inhibition of other classes of proteases or other enzymes or receptors other than caspases: no inhibition

## tunicamycin
[4]
  Casp2 protein and RNA in liver: induced

## Ac-VDVAD-aldehyde
[2]; [6]
  ATM (adipose tissue macrophage) accumulation / infiltration into epidydimal fat: blocked
  UCP1 expression in BAT: enhanced
  liver TG: decreased
  liver fibrosis: attenuated
  circulating TG: decreased
  circulating cholesterol: decreased
[2]; [7]
  MDB (Mallory-Denk body) formation: prevented
[2]; [8]
  blood insulin: had no effect
  body weight: had no effect
[2]; HFD-fed MUP-uPA mice, 10 μg/g i.p. on alternate days for 6 weeks after 6 weeks of HFD, liver sections
  hepatic steatosis: prevented
[2]; HFD-fed MUP-uPA mice, 10 μg/g i.p. on alternate days for 6 weeks, liver
  macrophage recruitment: decreasing
[2]; [9]
  ballooning degeneration: prevented
  p62 accumulation: prevented
[2]; IB of liver WCL and NE, HFD-fed MUP-uPA mice, 10 μg/g i.p. on alternate days for 6 weeks
  SREBP1/2 activation in liver: attenuated
[2]; IB of liver and muscle extracts, HFD-fed MUP-uPA mice, 10 μg/g i.p. on alternate days for 6 weeks
  energy expenditure, as suggested by AMPK activation in peripheral tissues, including liver and skeletal muscle: increased
[2]; MUP-uPA mice, 10 μg/g for 6 weeks after 6 weeks of HFD feeding, kept on HFD
  established NASH: ameliorates
[2]; epidydimal fat, HFD-fed MUP-uPA mice, 10 μg/g i.p. on alternate days for 6 weeks
  adipocyte enlargement: blocked
[2]; [10]
  INSIG1 or 2 expression: had no effect
  IRS2 expression: had no effect
  StARD4 expression: reduced
  mTORC1/p70S6K activation: had no effect
[2]; qRT-PCR, HFD-fed MUP-uPA mice, 10 μg/g i.p. on alternate days for 6 weeks
  expression of inflammatory cytokines and markers as well as fibrosis-related genes: reduced

B1: Casp2-HA (mouse Casp2 with a C terminal HA epitope) (protein)
chain: MAAPSGRSQSSLHRKGLMAADRRSRILAVCGMHPDHQETLKKNRVVLAKQLLLSELLEHLLEKDIITLEMRELIQAKGGSFSQNVELLNLLPKRGPQAFDAFCEALRETRQGHLEDLLLTTLSDIQHVLPPLSCDYDTSLPFSVCESCPPHKQLRLSTDATEHSLDNGDGPPCLLVKPCTPEFYQAHYQLAYRLQSQPRGLALVLSNVHFTGEKDLEFRSGGDVDHTTLVTLFKLLGYNVHVLHDQTAQEMQEKLQNFAQLPAHRVTDSCVVALLSHGVEGGIYGVDGKLLQLQEVFRLFDNANCPSLQNKPKMFFIQACRGDETDRGVDQQDGKNHTQSPGCEESDAGKEELMKMRLPTRSDMICGYACLKGNAAMRNTKRGSWYIEALTQVFSERACDMHVADMLVKVNALIKEREGYAPGTEFHRCKEMSEYCSTLCQQLYLFPGYPPT
[5]
  SREBP activation/cleavage (immunoblot): co-transfection of Casp2 with SREBP2 into either SCAP-deficient (293^ΔSCAP) or WT HEK293 cells did not result in SREBP1/2 activation/cleavage, unless an SP expression vector was also included
